We go through 3 compounds from PMC12152883, “Bile acids inhibit equilibrative adenosine transport to alter adenosine receptor signaling in cholestasis” (The Journal of Biological Chemistry, 2025).

The target in one experiment is T1, CNT2 (Homo sapiens, UniProt O43868).
T1 construct: expressed in transfected cells; host or cells: Xenopus laevis oocytes injected with in vitro-transcribed capped mRNA
T1 sequence (O43868 1-658): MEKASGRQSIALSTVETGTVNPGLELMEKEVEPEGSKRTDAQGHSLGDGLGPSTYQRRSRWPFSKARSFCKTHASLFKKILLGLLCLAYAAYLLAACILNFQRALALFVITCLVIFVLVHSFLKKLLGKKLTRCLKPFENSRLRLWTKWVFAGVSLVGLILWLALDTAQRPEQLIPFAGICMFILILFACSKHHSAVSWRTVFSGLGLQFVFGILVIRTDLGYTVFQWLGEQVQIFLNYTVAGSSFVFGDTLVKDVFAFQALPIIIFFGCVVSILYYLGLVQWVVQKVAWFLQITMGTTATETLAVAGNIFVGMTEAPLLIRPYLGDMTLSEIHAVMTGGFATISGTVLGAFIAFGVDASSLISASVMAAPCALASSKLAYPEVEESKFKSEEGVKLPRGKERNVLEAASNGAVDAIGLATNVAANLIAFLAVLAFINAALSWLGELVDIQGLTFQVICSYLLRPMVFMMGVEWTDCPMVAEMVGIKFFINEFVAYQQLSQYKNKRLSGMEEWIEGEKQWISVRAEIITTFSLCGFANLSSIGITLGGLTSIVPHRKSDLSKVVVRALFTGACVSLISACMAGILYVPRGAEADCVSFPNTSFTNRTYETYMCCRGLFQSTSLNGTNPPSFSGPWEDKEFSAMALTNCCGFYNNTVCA
The experiment can be described thus: Radiolabeled BA transport in CNT2 mRNA-injected Xenopus oocytes. The class given is cell-based. To be noted: 3H-labelled BA, Na+-containing buffer, pH 7.4. As for the experimental part:
We used a Xenopus oocyte-based transport assay that was previously used to examine BA transport by plasma membrane–directed ENT3 with a truncated N-terminus (that harbors lysosomal targeting motif) to experimentally verify whether ENT2 is capable of translocating BAs across the cell membrane ([24]). We tested both ENT1 and ENT2 along with CNT2, a purine nucleoside-specific concentrative transporter, to investigate their capacities to transport radiolabeled BAs. […] Transport was measured at pH 7.4, which is the closest pH to the pH of the extracellular fluid in which cells are exposed to solutes such as BAs to conduct plasma membrane transport ([29]).
The generated pOX expression constructs were linearized with either the Not1 or Sac1 restriction enzymes. The digested products were purified via phenol‒chloroform extraction. The mRNAs were synthesized using mMESSAGE mMACHINE (Ambion) transcription kits according to the manufacturer’s instructions. The mRNAs were purified via lithium precipitation. Oocytes were procured from Ecocyte. Prior to experiments, procured oocytes were defolliculated by treating with collagenase A-OR II solution followed by washing with Barth’s solution. Following microscopic verification, selected oocytes were incubated to recover overnight at 25 °C in a shaker incubator. Fifty nanoliters (400–800 ng/μl) of equal amounts of mRNAs were injected into defolliculated oocytes the next day. Expression of plasmids was analyzed after RNA isolation from oocyte extracts and conducting qPCR analysis with gene-specific primers as described earlier ([30]). The injected oocytes were incubated at 15 °C for 24 h before transport assays were performed. The uptake of radiolabeled substrates was measured after a 30 min incubation in transport buffer (100 mM NaCl, 2 mM KCl, 1 mM CaCl2, 1 mM MgCl2, and 10 mM Hepes, pH 7.4) at room temperature. […] Individual oocytes were shaken overnight in 10% SDS for complete dissolution, and then the radioactivity was quantified with a Beckman liquid scintillation counter. […]

The target in the next experiment is T2, ENT3 (Homo sapiens, UniProt Q9BZD2).
T2 construct: plasma membrane–directed ENT3 with a truncated N-terminus (that harbors lysosomal targeting motif); expressed in transfected cells; host or cells: Xenopus laevis oocytes injected with in vitro-transcribed mRNA from pOX-Δ36hENT3
T2 sequence (Q9BZD2 with tags, fused parts or gaps): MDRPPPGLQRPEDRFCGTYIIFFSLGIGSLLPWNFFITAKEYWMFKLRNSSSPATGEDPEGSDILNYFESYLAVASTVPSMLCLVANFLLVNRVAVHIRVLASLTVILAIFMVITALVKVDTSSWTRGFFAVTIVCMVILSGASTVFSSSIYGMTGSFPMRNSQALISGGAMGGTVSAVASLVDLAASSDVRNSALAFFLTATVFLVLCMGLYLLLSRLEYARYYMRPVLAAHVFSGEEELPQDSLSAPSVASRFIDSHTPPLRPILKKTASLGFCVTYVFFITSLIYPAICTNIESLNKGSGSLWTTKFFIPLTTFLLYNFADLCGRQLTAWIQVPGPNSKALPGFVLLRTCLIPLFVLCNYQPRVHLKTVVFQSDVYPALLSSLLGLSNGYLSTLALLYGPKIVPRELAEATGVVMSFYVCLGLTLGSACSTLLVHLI
The experiment can be described thus: Inhibition of 3H-nucleoside influx by BAs in ENT3-expressing Xenopus oocytes. The class given is cell-based. From the text:
We expressed individual ENTs (ENT1, ENT2, and ENT3) in X. laevis oocytes (as described above) and analyzed the Ado influx from each of the ENTs in the presence of different BAs to better understand whether the inhibition profiles differ across human ENTs. […] We also conducted an analysis of the concentration-dependent inhibition of Ado transport to estimate the IC50 values of the BAs (Fig. 4, D–F and Table 2).
Inhibition of Ado influx in H2O- and ENT-injected oocytes by treatment with different BAs at 100 μM. D–F, concentration-dependent inhibition of Ado influx in ENT-injected oocytes by different BAs. The bars represent the mean ± SD (n = 8–12 oocytes). A representative experiment from 3 to 5 independent experiments is presented. Statistical analysis was performed using one-way ANOVA with Dunnett’s multiple comparisons test; ∗p < 0.032, ∗∗p < 0.0021, ∗∗∗∗p < 0.0001.
The generated pOX expression constructs were linearized with either the Not1 or Sac1 restriction enzymes. The digested products were purified via phenol‒chloroform extraction. The mRNAs were synthesized using mMESSAGE mMACHINE (Ambion) transcription kits according to the manufacturer’s instructions. The mRNAs were purified via lithium precipitation. Oocytes were procured from Ecocyte. Prior to experiments, procured oocytes were defolliculated by treating with collagenase A-OR II solution followed by washing with Barth’s solution. Following microscopic verification, selected oocytes were incubated to recover overnight at 25 °C in a shaker incubator. Fifty nanoliters (400–800 ng/μl) of equal amounts of mRNAs were injected into defolliculated oocytes the next day. Expression of plasmids was analyzed after RNA isolation from oocyte extracts and conducting qPCR analysis with gene-specific primers as described earlier ([30]). The injected oocytes were incubated at 15 °C for 24 h before transport assays were performed. […] Uptake was terminated by washing the oocytes three times with arrest buffer containing 20 mM uridine. Individual oocytes were shaken overnight in 10% SDS for complete dissolution, and then the radioactivity was quantified with a Beckman liquid scintillation counter. The data are presented as the mean ± SD (n = 8–12 oocytes). A representative experiment from 3 to 5 independent experiments is presented.

Where [1] appears, read: 3H-Ado 20 μM, sodium-free buffer, read-out: ENT3 IC50 (Ado uptake).
The mark [2] stands for this setting: BA 100 μM, 3H-Ado 20 μM, sodium-free buffer.

Structures are written as SMILES. Values joined by “and” are separate entries in the source; they are usually repeats but may differ in a detail not shown here. Equal entries are not always repeated. Where two headings read alike, the source gives them in different places.

In the case of `C[C@H](CCC(=O)O)[C@H]1CC[C@H]2[C@@H]3[C@H](O)C[C@@H]4C[C@H](O)CC[C@]4(C)[C@H]3C[C@H](O)[C@]12C` [CA, cholic acid], the “transport of BA by CNT2” value at CNT2 is reported as “incapable of transporting”. For the same compound, the half-maximal inhibitory concentration (IC50) on ENT3 (setting [1]) is 1.2 ± 0.4 µM. The “ENT3 % uptake inhibition (Ado)” value on ENT3 (setting [2]) is listed as 77.1%.
With `C[C@H](CCC(=O)O)[C@H]1CC[C@H]2[C@@H]3CC[C@@H]4C[C@H](O)CC[C@]4(C)[C@H]3C[C@H](O)[C@]12C` [DCA, deoxycholic acid], the “transport of BA by CNT2” value at CNT2 is “incapable of transporting”. For the same compound, at ENT3 (setting [1]), the IC50 came to 0.6 ± 0.1 µM. The “ENT3 % uptake inhibition (Ado)” value on ENT3 (setting [2]) was 79% and 79.9%. For the same compound, the “inhibition of guanosine transport activity of ENT3” value at ENT3 (BA 100 μM, 3H-guanosine 20 μM) is given as “inhibited”.
For `C[C@H](CCC(=O)NCCS(=O)(=O)O)[C@H]1CC[C@H]2[C@@H]3[C@H](O)C[C@@H]4C[C@H](O)CC[C@]4(C)[C@H]3C[C@H](O)[C@]12C` [TCA, taurocholic acid], the “transport of BA by CNT2” value on CNT2 is listed as “incapable of transporting”. Also, at ENT3, the half-inhibitory concentration (IC50) was determined as 52.6 ± 22.2 µM. Also, the “ENT3 % uptake inhibition (Ado)” value on ENT3 (setting [2]) was 72.3%.

Usually IC50 stands for the concentration at which inhibition is half-maximal.
